Assays:
Format in all cases: in vivo
[1] = tested on: giant foxtail (Setaria faberi); experiment: Test G Pre-Emergence Protocol; conditions: Setaria faberi, pre-emergence, 312 h, evaluated after 13 days; for pest or weed control at 15.625 g/ha: 15.625 g ai/ha; for pest or weed control at 15.625 g/ha / pest or weed control at 250 g/ha: read-out: Foxtail, Giant damage rating (100=total damage to plant; 0=no damage to plant); for pest or weed control at 62.5 g/ha: 62.5 g ai/ha, 100=total damage to plant, 0=no damage to plant, read-out: Foxtail, Giant damage rating; for pest or weed control at 250 g/ha: 250 g ai/ha
Procedure, shortened: (§1)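 Seeds were sown in standard soil and kept one day in a glasshouse (24/16° C day/night, 14 h light, 65% humidity), then sprayed with compound in acetone/water (50:50) containing 0.5% Tween 20 at 15.625, 62.5 or 250 g/ha. Damage was scored after 13 days (0 = none, 100 = total).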

[2] = tested on: ivy-leaved morning glory (Ipomoea hederacea); experiment: Test G Pre-Emergence Protocol; conditions: Ipomoea, pre-emergence, 312 h, evaluated after 13 days; for pest or weed control at 15.625 g/ha: 15.625 g ai/ha; for pest or weed control at 15.625 g/ha / pest or weed control at 250 g/ha: read-out: Morningglory, Ivy-leaved damage rating (100=total damage to plant; 0=no damage to plant); for pest or weed control at 62.5 g/ha: 62.5 g ai/ha, 100=total damage to plant, 0=no damage to plant, read-out: Morningglory, Ivy-leaved damage rating; for pest or weed control at 250 g/ha: 250 g ai/ha
Procedure, shortened: as §1

[3] = tested on: corn (Zea mays); experiment: Test G Pre-Emergence Protocol; conditions: Zea mays, pre-emergence, 312 h, evaluated after 13 days; for plant injury at 15.625 g/ha: 15.625 g ai/ha; for plant injury at 15.625 g/ha / plant injury at 250 g/ha: read-out: Corn damage rating (100=total damage to plant; 0=no damage to plant); for plant injury at 62.5 g/ha: 62.5 g ai/ha, 100=total damage to plant, 0=no damage to plant, read-out: Corn damage rating; for plant injury at 250 g/ha: 250 g ai/ha
Procedure, shortened: as §1

[4] = tested on: barnyardgrass (Echinochloa crus-galli); experiment: Test G Pre-Emergence Protocol; conditions: Echinochloa crus-galli, pre-emergence, 312 h, evaluated after 13 days; for pest or weed control at 15.625 g/ha: 15.625 g ai/ha; for pest or weed control at 15.625 g/ha / pest or weed control at 250 g/ha: read-out: Barnyardgrass damage rating (100=total damage to plant; 0=no damage to plant); for pest or weed control at 62.5 g/ha: 62.5 g ai/ha, 100=total damage to plant, 0=no damage to plant, read-out: Barnyardgrass damage rating; for pest or weed control at 250 g/ha: 250 g ai/ha
Procedure, shortened: as §1

[5] = tested on: velvetleaf (Abutilon theophrasti); experiment: Test G Pre-Emergence Protocol; conditions: Abutilon theophrasti, pre-emergence, 312 h, evaluated after 13 days; for pest or weed control at 15.625 g/ha: 15.625 g ai/ha; for pest or weed control at 15.625 g/ha / pest or weed control at 250 g/ha: read-out: Velvetleaf damage rating (100=total damage to plant; 0=no damage to plant); for pest or weed control at 62.5 g/ha: 62.5 g ai/ha, 100=total damage to plant, 0=no damage to plant, read-out: Velvetleaf damage rating; for pest or weed control at 250 g/ha: 250 g ai/ha
Procedure, shortened: as §1

[6] = tested on: redroot pigweed (Amaranthus retroflexus); experiment: Test G Pre-Emergence Protocol; conditions: Amaranthus retroflexus, pre-emergence, 312 h, evaluated after 13 days; for pest or weed control at 15.625 g/ha: 15.625 g ai/ha; for pest or weed control at 15.625 g/ha / pest or weed control at 250 g/ha: read-out: Pigweed, Redroot damage rating (100=total damage to plant; 0=no damage to plant); for pest or weed control at 62.5 g/ha: 62.5 g ai/ha, 100=total damage to plant, 0=no damage to plant, read-out: Pigweed, Redroot damage rating; for pest or weed control at 250 g/ha: 250 g ai/ha
Procedure, shortened: as §1

[7] = tested on: giant foxtail (Setaria faberi); experiment: Test G Post-Emergence Protocol; conditions: Setaria faberi, post-emergence, 312 h, read-out: Foxtail, Giant damage rating; for pest or weed control at 15.625 g/ha: 15.625 g ai/ha, evaluated after 13 days (100=total damage to plant; 0=no damage to plant); for pest or weed control at 62.5 g/ha: 62.5 g ai/ha; for pest or weed control at 62.5 g/ha / pest or weed control at 250 g/ha: evaluated after 13 days, 100=total damage to plant, 0=no damage to plant; for pest or weed control at 250 g/ha: 250 g ai/ha
Procedure, shortened: (§2)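 Foliar application was made 8 days after sowing, using an aqueous spray of the active in acetone/water (50:50) with 0.5% Tween 20, at doses of 15.625, 62.5 or 250 g/ha. Injury was assessed 13 days later, where 100 meant the plant was fully damaged.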

[8] = tested on: ivy-leaved morning glory (Ipomoea hederacea); experiment: Test G Post-Emergence Protocol; conditions: Ipomoea, post-emergence, 312 h, read-out: Morningglory, Ivy-leaved damage rating; for pest or weed control at 15.625 g/ha: 15.625 g ai/ha, evaluated after 13 days (100=total damage to plant; 0=no damage to plant); for pest or weed control at 62.5 g/ha: 62.5 g ai/ha; for pest or weed control at 62.5 g/ha / pest or weed control at 250 g/ha: evaluated after 13 days, 100=total damage to plant, 0=no damage to plant; for pest or weed control at 250 g/ha: 250 g ai/ha
Procedure, shortened: as §2

[9] = tested on: corn (Zea mays); experiment: Test G Post-Emergence Protocol; conditions: Zea mays, post-emergence, 312 h, read-out: Corn damage rating; for plant injury at 15.625 g/ha: 15.625 g ai/ha, evaluated after 13 days (100=total damage to plant; 0=no damage to plant); for plant injury at 62.5 g/ha: 62.5 g ai/ha; for plant injury at 62.5 g/ha / plant injury at 250 g/ha: evaluated after 13 days, 100=total damage to plant, 0=no damage to plant; for plant injury at 250 g/ha: 250 g ai/ha
Procedure, shortened: as §2

[10] = tested on: barnyardgrass (Echinochloa crus-galli); experiment: Test G Post-Emergence Protocol; conditions: Echinochloa crus-galli, post-emergence, 312 h, read-out: Barnyardgrass damage rating; for pest or weed control at 15.625 g/ha: 15.625 g ai/ha, evaluated after 13 days (100=total damage to plant; 0=no damage to plant); for pest or weed control at 62.5 g/ha: 62.5 g ai/ha; for pest or weed control at 62.5 g/ha / pest or weed control at 250 g/ha: evaluated after 13 days, 100=total damage to plant, 0=no damage to plant; for pest or weed control at 250 g/ha: 250 g ai/ha
Procedure, shortened: as §2

[11] = tested on: velvetleaf (Abutilon theophrasti); experiment: Test G Post-Emergence Protocol; conditions: Abutilon theophrasti, post-emergence, 312 h, read-out: Velvetleaf damage rating; for pest or weed control at 15.625 g/ha: 15.625 g ai/ha, evaluated after 13 days (100=total damage to plant; 0=no damage to plant); for pest or weed control at 62.5 g/ha: 62.5 g ai/ha; for pest or weed control at 62.5 g/ha / pest or weed control at 250 g/ha: evaluated after 13 days, 100=total damage to plant, 0=no damage to plant; for pest or weed control at 250 g/ha: 250 g ai/ha
Procedure, shortened: as §2

[12] = tested on: redroot pigweed (Amaranthus retroflexus); experiment: Test G Post-Emergence Protocol; conditions: Amaranthus retroflexus, post-emergence, 312 h, read-out: Pigweed, Redroot damage rating; for pest or weed control at 15.625 g/ha: 15.625 g ai/ha, evaluated after 13 days (100=total damage to plant; 0=no damage to plant); for pest or weed control at 62.5 g/ha: 62.5 g ai/ha; for pest or weed control at 62.5 g/ha / pest or weed control at 250 g/ha: evaluated after 13 days, 100=total damage to plant, 0=no damage to plant; for pest or weed control at 250 g/ha: 250 g ai/ha
Procedure, shortened: as §2

Compound | pest or weed control at 15.625 g/ha [1] | pest or weed control at 62.5 g/ha [1] | pest or weed control at 250 g/ha [1] | pest or weed control at 15.625 g/ha [2] | pest or weed control at 62.5 g/ha [2] | pest or weed control at 250 g/ha [2] | plant injury at 15.625 g/ha [3] | plant injury at 62.5 g/ha [3] | plant injury at 250 g/ha [3] | pest or weed control at 15.625 g/ha [4] | pest or weed control at 62.5 g/ha [4] | pest or weed control at 250 g/ha [4] | pest or weed control at 15.625 g/ha [5] | pest or weed control at 62.5 g/ha [5] | pest or weed control at 250 g/ha [5] | pest or weed control at 15.625 g/ha [6] | pest or weed control at 62.5 g/ha [6] | pest or weed control at 250 g/ha [6] | pest or weed control at 15.625 g/ha [7] | pest or weed control at 62.5 g/ha [7] | other results
CN1C[C@H](c2ccc(C(F)(F)F)cc2)[C@@H](C(=O)Nc2ccc[n+]([O-])c2C(F)(F)F)C1=O (racemic) [Compound 1813] | 0% | 10% | 90% | 0% | 0% | 20% | 0% | 0% | 0% | 0% | 0% | 10% | 0% | 0% | 30% | 0% | 0% | 20% | 0% | 0% | pest or weed control at 250 g/ha [7]: 20%; pest or weed control at 15.625 g/ha [8]: 0%; pest or weed control at 62.5 g/ha [8]: 10%; pest or weed control at 250 g/ha [8]: 40%; plant injury at 15.625 g/ha [9]: 0%; plant injury at 62.5 g/ha [9]: 0%; plant injury at 250 g/ha [9]: 0%; pest or weed control at 15.625 g/ha [10]: 0%; pest or weed control at 62.5 g/ha [10]: 0%; pest or weed control at 250 g/ha [10]: 0%; pest or weed control at 15.625 g/ha [11]: 0%; pest or weed control at 62.5 g/ha [11]: 0%; pest or weed control at 250 g/ha [11]: 10%; pest or weed control at 15.625 g/ha [12]: 0%; pest or weed control at 62.5 g/ha [12]: 0%; pest or weed control at 250 g/ha [12]: 20%
CN1C[C@@H](c2cccc(C(F)(F)F)c2)[C@H](C(=O)Nc2cccc(F)n2)C1=O [Compound 1817] | 0% | 0% | 10% | 0% | 0% | 0% | 0% | 0% | 0% | 0% | 0% | 0% | 0% | 0% | 0% | 0% | 0% | 0% | 0% | 0% | pest or weed control at 250 g/ha [7]: 0%; pest or weed control at 15.625 g/ha [8]: 0%; pest or weed control at 62.5 g/ha [8]: 0%; pest or weed control at 250 g/ha [8]: 0%; plant injury at 15.625 g/ha [9]: 0%; plant injury at 62.5 g/ha [9]: 0%; plant injury at 250 g/ha [9]: 0%; pest or weed control at 15.625 g/ha [10]: 0%; pest or weed control at 62.5 g/ha [10]: 0%; pest or weed control at 250 g/ha [10]: 0%; pest or weed control at 15.625 g/ha [11]: 0%; pest or weed control at 62.5 g/ha [11]: 0%; pest or weed control at 250 g/ha [11]: 0%; pest or weed control at 15.625 g/ha [12]: 0%; pest or weed control at 62.5 g/ha [12]: 0%; pest or weed control at 250 g/ha [12]: 0%
